The text below walks through data of US8399465B2, “Compounds with two fused bicyclic heteroaryl moieties as modulators of leukotriene A4 hydrolase” (Janssen Pharmaceutica NV, priority 2009, dated 2013).

Structures can show the parent of a compound that is named as a salt. Where two headings read alike, the source gives them in different places.

In experiment [1] the test system is arachidonic acid-induced neutrophil influx in murine ear tissue. Description: Murine arachidonic acid-induced inflammation model: neutrophil influx (myeloperoxidase) in ear. The format is in vivo, Balb/c mice. Particulars: Mus musculus, read-out: % Inh. MPO.
For experiment [2], the system named is LTB4 production in murine blood (LTA4H). Description: LTB4 production by calcium ionophore-stimulated murine blood for LTA4H inhibitor activity. The format is cell-based, CD-1 mice. Particulars: Mus musculus; murine blood diluted 1 in 15, A23187 stimulated; single determination or average; mark after value = form tested: ′ free base, ″ hydrochloride, ^ formate; read-out: IC50. The method, boiled down: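 LTB4 was measured by ELISA in supernatants after calcium ionophore A23187 stimulation (final 7 μg/mL, 30 min, 37° C) of CD-1 mouse blood collected on heparin. Compound was preincubated with the blood for 15 min beforehand. Values come from one determination or average several.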

Experiment [3] deals with T1, recombinant human LTA4 hydrolase (rhLTA4H) (Homo sapiens, UniProt P09960).
T1 construct: made in house; host or cells: Spodoptera frugiperda (Sf-9) cells, baculovirus (pFastBac1)
T1 sequence (P09960 1-611): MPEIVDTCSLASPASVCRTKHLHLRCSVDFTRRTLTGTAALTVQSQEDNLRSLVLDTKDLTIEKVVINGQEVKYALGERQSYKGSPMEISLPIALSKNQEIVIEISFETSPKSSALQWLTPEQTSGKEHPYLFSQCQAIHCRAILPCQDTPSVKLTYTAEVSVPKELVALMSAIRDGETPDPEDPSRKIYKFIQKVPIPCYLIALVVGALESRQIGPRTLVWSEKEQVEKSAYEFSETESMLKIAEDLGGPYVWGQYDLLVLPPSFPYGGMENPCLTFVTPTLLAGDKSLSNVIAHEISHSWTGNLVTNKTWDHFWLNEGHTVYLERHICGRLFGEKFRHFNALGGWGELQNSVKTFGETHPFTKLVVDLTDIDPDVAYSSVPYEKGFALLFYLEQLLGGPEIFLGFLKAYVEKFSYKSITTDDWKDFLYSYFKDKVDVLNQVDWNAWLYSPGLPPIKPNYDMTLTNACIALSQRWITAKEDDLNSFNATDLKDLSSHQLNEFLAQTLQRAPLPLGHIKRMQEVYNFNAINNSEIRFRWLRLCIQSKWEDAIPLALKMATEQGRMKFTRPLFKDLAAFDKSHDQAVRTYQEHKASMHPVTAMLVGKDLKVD
The experiment is described as follows: Recombinant human LTA4 hydrolase assay for LTA4 hydrolase inhibitor activity. The format is biochemical. Particulars: rhLTA4H, LTB4 by immunoassay; single determination or average of two or more; mark after value = form tested: ′ free base, ″ hydrochloride, ^ formate; read-out: IC50. The method, boiled down:
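LTB4 formation, measured by enzyme immunoassay, was the read-out. The enzyme, recombinant human LTA4H expressed in Sf-9 insect cells (10 ng per reaction), was exposed to compound for 10 min at room temperature before hydrolysed-ester LTA4 substrate was added for 30 min. Enzyme-free negatives were included.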

For experiment [4], the system named is ex vivo calcium ionophore-stimulated LTB4 production in whole blood. Description: Murine arachidonic acid-induced inflammation model: ex vivo stimulated LTB4 production in blood. The arrangement: species or system Balb/c mice. Conditions: Mus musculus; 30 mg/kg oral gavage; blood diluted 1:1, A23187 stimulated ex vivo; percent inhibition of LTB4 production; read-out: % Inh. LTB4.

Where [5] appears, read: 30 mg/kg oral gavage, 60 min before topical arachidonic acid, ear biopsy after 3 h, percent inhibition of neutrophil influx.

For orientation: IC50 means the concentration that inhibits the measured activity by half. With `CC(=O)N1CCC(N(Cc2coc3cc(Oc4nc5ncccc5s4)ccc23)C2CC2)CC1` [Example 238, 1-(4-{Cyclopropyl-[6-(thiazolo[4,5-b]pyridin-2-yloxy)-benzofuran-3-ylmethyl]-amino}-piperidin-1-yl)-ethanone], the inhibition at 30 mg/kg turned out to be 77% in experiment [1] (setting [5]) and 93% in experiment [4]. The IC50 came to 44 nM in experiment [2] and 5 nM in experiment [3].

Turning to `C[C@H]1COCCN1Cc1c[nH]c2cc(Oc3nc4ncccc4s3)ccc12` [Example 41, (3S)-2-[3-(3-Methyl-morpholin-4-ylmethyl)-1H-indol-6-yloxy]-thiazolo[4,5-b]pyridine], the inhibition at 30 mg/kg in experiment [1] (setting [5]) was found to be 62%; in experiment [4] it was 65%. Also, the figures for the IC50 in experiment [2] and in experiment [3] were 34 nM and 4 nM, respectively.

Regarding `CC(=O)N1C[C@H]2C[C@@H]1CN2Cc1cc2ccc(Oc3nc4ncccc4s3)cc2o1` [Example 107, (1R,4R)-1-{5-[6-(Thiazolo[4,5-b]pyridin-2-yloxy)-benzofuran-2-ylmethyl]-2,5-diaza-bicyclo[2.2.1]hept-2-yl}-ethanone], the inhibition at 30 mg/kg in experiment [1] (setting [5]) came to 82%; in experiment [4], 75%. Besides, the IC50 in experiment [2] was 276 nM; in experiment [3], 65 nM.

As to `CC(=O)NCC1CCN(Cc2coc3cc(Oc4nc5ncccc5s4)ccc23)CC1` [Example 162, N-{1-[6-(Thiazolo[4,5-b]pyridin-2-yloxy)-benzofuran-3-ylmethyl]-piperidin-4-ylmethyl}-acetamide], the results for the inhibition at 30 mg/kg in experiment [1] (setting [5]) and in experiment [4] were 87% and 90%, respectively. For the same compound, the figures for the IC50 in experiment [2] and in experiment [3] were 26 nM and 1 nM, respectively.

With `CC(=O)N[C@@H]1C[C@H]2CC[C@@H](C1)N2Cc1cc2cc(Oc3nc4ncccc4s3)ccc2o1` [Example 104, meso-exo-N-{8-[5-(Thiazolo[4,5-b]pyridin-2-yloxy)-benzofuran-2-ylmethyl]-8-aza-bicyclo[3.2.1]oct-3-yl}-acetamide], the inhibition at 30 mg/kg in experiment [1] (setting [5]) turned out to be 92%; in experiment [4] it was 83%. In addition, the values for the IC50 in experiment [2] and in experiment [3] were 16 nM and 10 nM, respectively.

Consider `CC(=O)N[C@H]1C[C@H]2CC[C@@H](C1)N2Cc1cc2ccc(Oc3nc4ncccc4s3)cc2s1` [Example 135, meso-endo-N-{8-[6-(Thiazolo[4,5-b]pyridin-2-yloxy)-benzo[b]thiophen-2-ylmethyl]-8-aza-bicyclo[3.2.1]oct-3-yl}-acetamide], for which the inhibition at 30 mg/kg in experiment [1] (setting [5]) amounted to 42%; in experiment [4], 85%. The IC50 in experiment [2] stood at 110 nM; in experiment [3] it was 3 nM.

For the compound `CC(=O)N1CCCN(C(=O)c2coc3cc(Oc4nc5ncccc5s4)ccc23)CC1` [Example 372, 1-{4-[6-(Thiazolo[4,5-b]pyridin-2-yloxy)-benzofuran-3-carbonyl]-[1,4]diazepan-1-yl}-ethanone], the inhibition at 30 mg/kg in experiment [1] (setting [5]) amounted to 53%; in experiment [4], 62%. The half-maximal inhibitory concentration (IC50) in experiment [2] worked out at 47 nM; in experiment [3], 30 nM.

Regarding `O=C(O)C1CCN(Cc2cc3cc(Oc4nc5ccccc5s4)ccc3o2)CC1` [Example 76, 1-[5-(Benzothiazol-2-yloxy)-benzofuran-2-ylmethyl]-piperidine-4-carboxylic acid], the results for the inhibition at 30 mg/kg in experiment [1] (setting [5]) and in experiment [4] were 89% and 85%, respectively. Also, the IC50 in experiment [2] worked out at 48 nM; in experiment [3], 28 nM.

Take `c1cnc2nc(Oc3ccc4c(CN5CCCC5)coc4c3)sc2c1` [Example 185, 2-(3-Pyrrolidin-1-ylmethyl-benzofuran-6-yloxy)-thiazolo[4,5-b]pyridine]: the inhibition at 30 mg/kg came out at 64% in experiment [1] (setting [5]) and 75% in experiment [4]. Also, the IC50 in experiment [2] was determined as 12 nM; in experiment [3], 4 nM.

Regarding `CC(=O)N1C[C@H]2CC[C@@H](C1)N2Cc1coc2cc(Oc3nc4ncccc4s3)ccc12` [Example 153, 1-{8-[6-(Thiazolo[4,5-b]pyridin-2-yloxy)-benzofuran-3-ylmethyl]-3,8-diaza-bicyclo[3.2.1]oct-3-yl}-ethanone], the inhibition at 30 mg/kg in experiment [1] (setting [5]) came to 82%; in experiment [4], 84%. Besides, the IC50 in experiment [2] amounted to 25 nM; in experiment [3], 2 nM.

As to `CC(=O)N(C)C1CCN(Cc2coc3cc(Oc4nc5ncccc5s4)ccc23)C1` (stereo not shown) [Example 309, N-Methyl-N-{1-[6-(thiazolo[4,5-b]pyridin-2-yloxy)-benzofuran-3-ylmethyl]-pyrrolidin-3-yl}-acetamide], the inhibition at 30 mg/kg turned out to be 81% in experiment [1] (setting [5]) and 70% in experiment [4]. Besides, the IC50 came out at 66 nM in experiment [2] and 5 nM in experiment [3].

`CC(=O)N1C[C@@H]2CC[C@H]1CN2Cc1coc2cc(Oc3nc4ncccc4s3)ccc12` [Example 237, (1S,4S)1-{5-[6-(Thiazolo[4,5-b]pyridin-2-yloxy)-benzofuran-3-ylmethyl]-2,5-diaza-bicyclo[2.2.2]oct-2-yl}-ethanone]: the figures for the inhibition at 30 mg/kg in experiment [1] (setting [5]) and in experiment [4] were 81% and 90%, respectively. Further, the IC50 in experiment [2] was 22 nM; in experiment [3] it was 2 nM.

Turning to `c1cnc2nc(Oc3ccc4c(CN5C[C@@H]6C[C@H]5CO6)coc4c3)sc2c1` [Example 158, (1S,4S)-2-[3-(2-Oxa-5-aza-bicyclo[2.2.1]hept-5-ylmethyl)-benzofuran-6-yloxy]-thiazolo[4,5-b]pyridine], the inhibition at 30 mg/kg in experiment [1] (setting [5]) is 87%; in experiment [4], 95%. For the same compound, the IC50 was determined as 32 nM in experiment [2] and 6 nM in experiment [3].

`CC(=O)N1C[C@@H]2CC[C@H]1CN2Cc1cc2ccc(Oc3nc4ncccc4s3)cc2o1` [Example 170, meso-1-{5-[6-(Thiazolo[4,5-b]pyridin-2-yloxy)-benzofuran-2-ylmethyl]-2,5-diaza-bicyclo[2.2.2]oct-2-yl}-ethanone]: the inhibition at 30 mg/kg in experiment [1] (setting [5]) stood at 70%; in experiment [4] it was 76%. Besides, the half-inhibitory concentration (IC50) in experiment [2] is 80 nM; in experiment [3] it was 5 nM.

On to `O=C(c1coc2cc(Oc3nc4ncccc4s3)ccc12)N1CCC(N2CCCC2=O)CC1` [Example 370, 1-{1-[6-(Thiazolo[4,5-b]pyridin-2-yloxy)-benzofuran-3-carbonyl]-piperidin-4-yl}-pyrrolidin-2-one], for which the inhibition at 30 mg/kg was determined as 69% in experiment [1] (Neutrophil) and 78% in experiment [4]. Further, the IC50 in experiment [2] came to 30 nM; in experiment [3] it was 9 nM.

On to `CC(=O)NC1CCN(Cc2coc3cc(Oc4nc5ncccc5s4)ccc23)C1` (stereo not shown) [Example 307, N-{1-[6-(Thiazolo[4,5-b]pyridin-2-yloxy)-benzofuran-3-ylmethyl]-pyrrolidin-3-yl}-acetamide formate], for which the inhibition at 30 mg/kg is 78% in experiment [1] (Neutrophil) and 81% in experiment [4]. Also, the IC50 in experiment [2] is 8 nM; in experiment [3], 5 nM.

Take `Fc1cnc2nc(Oc3ccc4c(CN5CCOCC5)c[nH]c4c3)sc2c1` [Example 58, 6-Fluoro-2-(3-morpholin-4-ylmethyl-1H-indol-6-yloxy)-thiazolo[4,5-b]pyridine]: the figures for the inhibition at 30 mg/kg in experiment [1] (setting [5]) and in experiment [4] were 57% and 84%, respectively. Moreover, the IC50 was found to be 250 nM in experiment [2] and 10 nM in experiment [3].

`CN(C)Cc1cc2cc(Oc3nc4ncccc4s3)ccc2o1` [Example 112, Dimethyl-[5-(thiazolo[4,5-b]pyridin-2-yloxy)-benzofuran-2-ylmethyl]-amine]: the inhibition at 30 mg/kg is 17% in experiment [1] (setting [5]) and 56% in experiment [4]. For the same compound, the IC50 in experiment [2] was determined as 70 nM; in experiment [3] it was 42 nM.

In the case of `NC(=O)N[C@H]1C[C@H]2CC[C@@H](C1)N2Cc1cc2cc(Oc3nc4ncccc4s3)ccc2o1` [Example 103, meso-endo-N-{8-[5-(Thiazolo[4,5-b]pyridin-2-yloxy)-benzofuran-2-ylmethyl]-8-aza-bicyclo[3.2.1]oct-3-yl}-urea], the inhibition at 30 mg/kg in experiment [1] (setting [5]) stood at 18%; in experiment [4], 0%. In addition, the IC50 in experiment [2] was determined as 132 nM; in experiment [3], 4 nM.
